One block for each compound: values may come before it.
What was measured:
azide-labeled GlyCAM-Ig = molecular target: T1, azide-labeled GlyCAM-Ig (Mus musculus, UniProt Q02596); test: Western blot analysis of azide-labeled GlyCAM-Ig; assay type: biochemical; conditions: for labeling (biotinylation) of GlyCAM-Ig modified with SiaNAz: 250 μM probe alone, overnight at rt, no copper catalysis
T1 construct: made in house; host or cells: CHO cells grown with Ac4ManNAz
T1 sequence (Q02596 20-151): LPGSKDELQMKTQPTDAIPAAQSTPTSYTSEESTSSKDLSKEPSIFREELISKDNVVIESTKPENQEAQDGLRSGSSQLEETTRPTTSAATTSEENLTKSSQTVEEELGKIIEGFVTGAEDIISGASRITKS
Procedure: For Western blot analysis of azide-labeled and unlabeled GlyCAM-Ig, samples were incubated with 5 (250 μM final concentration in PBS, pH 7.4 containing 0.7% DMF), 6 (250 μM final concentration in PBS, pH 7.4 containing either 0.7% DMF) or left untreated for 12 h. To verify that 6 could react with azide-labeled GlyCAM-Ig via copper-mediated [3+2] cycloaddition, a modified version of the method reported by Speers and Cravatt was employed. Speers and Cravatt (2004) Chem. Biol. 11:535-46. Briefly, GlyCAM-Ig samples (in PBS, pH 7.4 containing 0.7% DMF) were incubated with 250 μM 6, 2.5 mM TCEP, 250 μM tris-triazolyl ligand (from a 1.7 mM stock in 1:4 DMSO:tert-butanol), and 2.5 mM CuSO4. Samples were vortexed and allowed to react at rt for 12 h. Prior to electrophoresis, samples were incubated with an equal volume of 100 mM 2-azidoethanol in 2×SDS-PAGE loading buffer for 8 h at rt (to quench unreacted 5 or 6). The quenched samples were boiled for 3 min and loaded onto precast polyacrylamide gels. After electrophoresis, the samples were electroblotted to nitrocellulose membrane. The membrane was blocked using 5% BSA in PBS (pH 7.4, containing 0.05% Tween 20 (blocking buffer A) for 1 h at rt, then incubated with a solution of blocking buffer A containing HRP-α-biotin (1:250,000 dilution, 1 h at rt). The membrane was washed, and detection of membrane-bound anti-biotin-HRP was accomplished by chemiluminescence. Following detection, the membrane was rinsed with PBS (pH 7.4) containing 0.05% Tween (PBS-T) and placed in stripping buffer (15 min at RT) to remove bound anti-biotin Ig. The membrane was thoroughly rinsed with PBS-T and probed for residual anti-biotin signal by chemiluminescence.
The membrane was washed and re-blocked with 5% low-fat dry powdered milk (blocking buffer B) for 1 h at rt. The membrane was then incubated with HRP-α-Ig (1:5000 in blocking buffer B) for 1 h at rt. The membrane was washed again with PBS-T, and detection of membrane bound anti-human Ig was accomplished as for peroxidase-conjugated anti-biotin. Control samples were treated in an identical manner, except that specific reagents were replaced by buffer where appropriate.
FIG. 2. Labeling of azide-modified GlyCAM-Ig with alkyne probes. Purified GlyCAM-Ig was treated with buffer (−), 250 μM 5, or 250 μM 6 alone or in the presence (cat) of CuSO4, TCEP, and a triazolyl ligand, overnight at rt. Reaction mixtures were quenched with 2-azidoethanol and analyzed by Western blot probing with HRP-α-biotin (upper panel). The blot was then stripped and reprobed with HRP-α-Ig (lower panel).

[1] = Stability of cyclooctyne 3 to acid, base and biological nucleophiles; assay type: physicochemical
Procedure: [drawing 31] by Reese and Shaw. Reese and Shaw (1970) Chem. Comm. 1172-1173. Briefly, compound 1 (Skattebol and Solomon, supra) was treated with silver perchlorate to effect electrocyclic ring opening to the trans-allylic cation, which was captured with methyl hydroxymethylbenzoate to afford bromo-trans-cyclooctene 2. Base-mediated elimination of the vinyl bromide followed by saponification yielded versatile intermediate 3, to which any biological probe can be attached. Finally, compound 3 was coupled to biotin analog 4 (Wilbur et al. (1996) Bioconj. Chem. 7:689-702) bearing a PEG linker, providing target 5. Cyclooctyne 3 was stable to mild acid (0.5 N HCl for 30 min), base (0.8 M NaOMe for 30 min), and prolonged exposure to biological nucleophiles such as thiols (120 mM 2-mercaptoethanol for 12 h).

Jurkat cells [2] = test: Cell surface azide labeling and detection, Jurkat cells, FITC-avidin flow cytometry; assay type: cell-based, human
Procedure: Jurkat cells were seeded at a density of 1.5-2.0×10^5 cells/mL and incubated for 3 d in untreated media or media containing various concentrations of Ac4ManNAz. […] Cells were then incubated with 5 or a biotinylated phosphine probe (Vocadlo et al. (2003) Proc. Natl. Acad. Sci. U.S.A. 100:9116-21) in labeling buffer containing 2.8% DMF or labeling buffer plus 2.8% DMF alone. […] Following a 10-min incubation on ice (in the dark), cells were washed with 200 μL of cold labeling buffer and the FITC-avidin staining procedure was repeated.
FIGS. 3A and 3B. Cell surface labeling with compound 5. Jurkat cells were incubated in the presence (+Az) or absence (−Az) of 25 μM Ac4ManNAz for 3 d. FIG. 3A. The cells were reacted with various concentrations of 5 for 1 h at rt and treated with FITC-avidin; mean fluorescence intensity (MFI) was determined by flow cytometry. FIG. 3B. The cells were incubated with 250 μM 5 for various durations at rt and analyzed as in A. C. The cells were incubated with 100 μM probe for 1 h at rt and analyzed as in A. Error bars represent the standard deviation from three replicates. AU=arbitrary fluorescence units.

[3] = Kinetic evaluation of [3+2] cycloaddition of cyclooctyne probes with 2-azidoethanol (1H NMR); assay type: physicochemical; conditions: HOCH2CH2N3, CD3CN/PBS (55:45), 22° C.
Procedure: (§1) Stock solutions of cyclooctynes 3a and 3b (50 mM), benzyl azide (500 mM) and 2-azidoethanol (500 mM) were made in either CD3CN or a 55:45 mixture of CD3CN and deuterated Dulbecco's phosphate-buffered saline (pH 7.4, made with D2O). Gentle heating and/or sonication in a H2O bath was required to fully dissolve 3a and 3b. An NMR tube was charged with 450 μL of either 3a or 3b, and 50 μL of either benzyl azide or 2-azidoethanol, and the reaction was monitored over time using ^1H NMR spectroscopy.
(§2) In the case of the reactions of 3a and 3b with benzyl azide, the kinetic data were derived by monitoring the change in integration of resonances corresponding to the benzylic protons in benzyl azide (δ˜4.2 ppm) compared to the corresponding resonances of the triazole products (δ ˜5.0 to 5.5 ppm). […]
(§3) Second-order rate constants for the reaction were determined by plotting 1/[benzyl azide] versus time in the case of the reactions of 3a and 3b with benzyl azide and by plotting 1/[3a] versus time or 1/[3b] versus time in the case of the reactions of 3a and 3b with 2-azidoethanol, and subsequent analysis by linear regression. Second-order rate constants correspond to one half of the determined slope (Table 1). […]

[4] = Kinetic evaluation of [3+2] cycloaddition of cyclooctyne probes with benzyl azide (1H NMR); assay type: physicochemical; conditions: PhCH2N3, CD3CN, 22° C.
Procedure: as §1, §2, §3

Jurkat cells [5] = system: Jurkat cells

SMILES: O=C(O)c1ccc(COC2C#CCCCCC2)cc1 (stereo not drawn) [Compound 3]
- stability to biological nucleophiles such as thiols ([1]; 120 mM 2-mercaptoethanol for 12 h): stable
- stability to mild acid ([1]; 0.5 N HCl for 30 min): stable
- stability to base ([1]; 0.8 M NaOMe for 30 min): stable

SMILES: O=C(O)c1ccc(CC2C#CCCCCC2)cc1 (stereo not drawn) [Compound 3a, 4-Cyclooct-2-ynylmethylbenzoic acid]
- k, second-order rate constant for the [3 + 2] cycloaddition [3]: 0.0011 M⁻¹ s⁻¹
- k, second-order rate constant for the [3 + 2] cycloaddition [4]: 0.0012 M⁻¹ s⁻¹

SMILES: O=C(CCCC[C@@H]1SC[C@@H]2NC(=O)N[C@@H]21)NCCCOCCOCCOCCCNC(=O)COC1CCC#CC(F)(F)CC1 (stereo partly drawn) [DIFO-biotin]
- labeling of azide-containing membrane-associated glycans in live cells (Jurkat cells [5]; 0 or 25 μM Ac4ManNAz 3 days, probe 1 h, FITC-avidin): selectively label
- sensitivity of azide detection compared to a nonfluorinated cyclooctyne or a phosphine capable of Staudinger ligation (Jurkat cells [5]; 100 μM probes, 1 h): much higher

SMILES: O=C(O)c1ccc(CC2(F)C#CCCCCC2)cc1 (stereo not drawn) [Compound 3b, 4-(1-Fluoro-cyclooct-2-ynylmethyl)benzoic acid]
- k, second-order rate constant for the [3 + 2] cycloaddition [3]: 0.004 M⁻¹ s⁻¹
- k, second-order rate constant for the [3 + 2] cycloaddition [4]: 0.0042 M⁻¹ s⁻¹

The next lines start with results.

- labeling (biotinylation) of GlyCAM-Ig modified with SiaNAz (azide-labeled GlyCAM-Ig; HRP-α-biotin blot): no glycoprotein labeling
- labeling of the azide-modified glycoprotein with copper catalysis (azide-labeled GlyCAM-Ig; 250 μM probe plus CuSO4, TCEP and a triazolyl ligand): facile labeling
- anti-IgG immunoreactivity of labeled azide-modified GlyCAM-Ig (azide-labeled GlyCAM-Ig; in the presence of copper, blot reprobed with HRP-α-IgG): consistently diminished
SMILES: C#CCCC(=O)NCCCOCCOCCOCCCNC(=O)CCCC[C@@H]1SC[C@@H]2NC(=O)N[C@@H]21 [Compound 6]

- labeling (biotinylation) of GlyCAM-Ig modified with SiaNAz (azide-labeled GlyCAM-Ig; HRP-α-biotin blot): Robust biotinylation
- labeling of native GlyCAM-Ig lacking azides (azide-labeled GlyCAM-Ig; 250 μM probe overnight, HRP-α-biotin blot): no background labeling
SMILES: O=C(CCCC[C@@H]1SC[C@@H]2NC(=O)N[C@@H]21)NCCCOCCOCCOCCCNC(=O)c1ccc(COC2C#CCCCCC2)cc1 (stereo partly drawn) [Compound 5]
- dependence of cell surface reaction on incubation time (Jurkat cells [2]; Jurkat +Az, 250 μM probe for various durations at rt): dependent on duration of incubation
- effects on cell viability (Jurkat cells [2]; Jurkat cells treated with probe): No negative effects
- labeling of cells lacking azides (Jurkat cells [2]; Jurkat grown without Ac4ManNAz): No detectable labeling
- fluorescence of cells displaying azides upon treatment with the cyclooctyne probe (Jurkat cells [2]; Jurkat, 25 μM Ac4ManNAz 3 d, various concentrations of probe, rt, FITC-avidin): dose-dependent increase in fluorescence
